# From article PMC10299128, “The Parallel Structure–Activity Relationship Screening of Three Compounds Identifies the Common Agonist Pharmacophore of Pyrrolidine Bis-Cyclic Guanidine Melanocortin-3 Receptor (MC3R) Small-Molecule Ligands” (International Journal of Molecular Sciences, 2023)
# Legend:
# mMC3R = mMC3R (Mus musculus, UniProt P33033); experiment: AlphaScreen cAMP agonist assay, HEK293 cells stably expressing mMC3R; settings: for mMC3R percent maximal stimulatory response (compared to NDP-MSH): at 1 mM, not enough stimulation to determine EC50; for mMC3R partial agonist efficacy bin: sigmoidal curve, efficacy <90% of NDP-MSH
# mMC4R = mMC4R (Mus musculus, UniProt P56450); experiment: AlphaScreen cAMP agonist assay, HEK293 cells stably expressing mMC4R; settings: for mMC4R percent maximal stimulatory response (compared to NDP-MSH): at 1 mM, not enough stimulation to determine EC50
# mMC1R = mMC1R (Mus musculus, UniProt Q01727); experiment: AlphaScreen cAMP agonist assay, HEK293 cells stably expressing mMC1R; settings: for mMC1R partial agonist efficacy bin: sigmoidal curve, efficacy <90% of NDP-MSH; for mMC1R percent maximal stimulatory response (compared to NDP-MSH): at 1 mM, not enough stimulation to determine EC50
# mMC5R = mMC5R (Mus musculus, UniProt P41149); experiment: AlphaScreen cAMP agonist assay, HEK293 cells stably expressing mMC5R; settings: for mMC5R partial agonist efficacy bin: sigmoidal curve, efficacy <90% of NDP-MSH
# Sequence of mMC5R (P41149 whole entry): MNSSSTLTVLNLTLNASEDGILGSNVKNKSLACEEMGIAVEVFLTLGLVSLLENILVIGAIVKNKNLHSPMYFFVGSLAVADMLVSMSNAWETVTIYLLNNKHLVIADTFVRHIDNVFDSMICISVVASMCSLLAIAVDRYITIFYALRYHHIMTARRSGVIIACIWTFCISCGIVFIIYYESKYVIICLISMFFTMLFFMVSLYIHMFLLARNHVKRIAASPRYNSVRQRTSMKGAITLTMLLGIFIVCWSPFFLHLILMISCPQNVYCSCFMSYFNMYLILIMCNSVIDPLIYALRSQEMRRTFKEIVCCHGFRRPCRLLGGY
# Sequence of mMC3R (P33033 whole entry): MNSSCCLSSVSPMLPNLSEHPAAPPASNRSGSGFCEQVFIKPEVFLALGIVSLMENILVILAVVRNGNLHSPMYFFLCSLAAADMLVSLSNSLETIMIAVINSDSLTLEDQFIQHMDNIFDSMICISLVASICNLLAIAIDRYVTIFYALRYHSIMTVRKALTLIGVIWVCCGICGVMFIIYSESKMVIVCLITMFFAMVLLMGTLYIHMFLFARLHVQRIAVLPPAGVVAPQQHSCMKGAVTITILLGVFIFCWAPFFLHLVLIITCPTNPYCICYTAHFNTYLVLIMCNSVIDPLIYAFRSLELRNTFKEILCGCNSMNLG
# Sequence of mMC1R (Q01727 whole entry): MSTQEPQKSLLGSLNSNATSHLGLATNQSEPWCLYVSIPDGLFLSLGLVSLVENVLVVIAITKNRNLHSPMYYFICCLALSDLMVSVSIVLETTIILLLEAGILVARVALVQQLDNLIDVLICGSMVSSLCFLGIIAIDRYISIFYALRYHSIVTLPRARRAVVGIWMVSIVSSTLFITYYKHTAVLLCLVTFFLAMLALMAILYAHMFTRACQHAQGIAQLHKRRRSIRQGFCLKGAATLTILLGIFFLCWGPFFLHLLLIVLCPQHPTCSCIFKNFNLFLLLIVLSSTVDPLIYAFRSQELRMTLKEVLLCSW
# Sequence of mMC4R (P56450 whole entry): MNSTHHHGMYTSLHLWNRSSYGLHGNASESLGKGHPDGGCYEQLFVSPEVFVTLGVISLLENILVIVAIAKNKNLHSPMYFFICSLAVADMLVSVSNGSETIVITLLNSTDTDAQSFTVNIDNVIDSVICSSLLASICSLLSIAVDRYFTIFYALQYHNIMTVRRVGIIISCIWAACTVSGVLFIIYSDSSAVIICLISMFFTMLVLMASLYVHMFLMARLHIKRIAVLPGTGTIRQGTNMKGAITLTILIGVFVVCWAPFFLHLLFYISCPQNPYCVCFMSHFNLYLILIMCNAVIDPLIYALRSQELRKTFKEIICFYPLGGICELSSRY
EC50 (mMC3R) [µM],mMC4R percent maximal stimulatory response (compared to NDP-MSH) (mMC4R) [% @ 1 mM],EC50 (mMC1R) [µM],mMC1R partial agonist efficacy bin (mMC1R),EC50 (mMC5R) [µM],mMC5R partial agonist efficacy bin (mMC5R),mMC3R percent maximal stimulatory response (compared to NDP-MSH) (mMC3R) [% @ 1 mM],mMC3R partial agonist efficacy bin (mMC3R),fold decreased mMC5R agonist potency (mMC5R; relative to 2718.002) [fold],EC50 (mMC4R) [µM],mMC1R percent maximal stimulatory response (compared to NDP-MSH) (mMC1R) [% @ 1 mM],fold decreased mMC5R agonist potency (mMC5R; relative to 2718.001) [fold],fold decreased mMC1R agonist potency (mMC1R; relative to 2718.001) [fold],"mMC5R percent maximal stimulatory response (compared to NDP-MSH) (mMC5R; at 1 mM, not enough stimulation to determine EC50) [% @ 1 mM]","mMC4R partial agonist efficacy bin (mMC4R; sigmoidal curve, efficacy <90% of NDP-MSH)",SMILES
–,55,0.9 ± 0.3,–,5.8 ± 0.9,B (B (51–90% receptor activation)),50,–,–,–,–,–,–,–,–,CC(C)C[C@@H]1CNC(=N)N1C[C@H]1CCCN1C[C@@H](Cc1ccccc1)N1C[C@H]([C@@H](C)O)N(CC2CCC(C(C)(C)C)CC2)C1=N (stereo partly drawn) [Compound 2718.036]
2.2 ± 0.2,45,2.2 ± 0.7,B (B (51–90% receptor activation)),1.1 ± 0.3,–,–,B (B (51–90% receptor activation)),4,–,–,–,–,–,–,CCCCC(CN1CCCC1CN1C(=N)NCC1CC(C)C)N1CC(C(C)O)N(CC2CCC(C(C)(C)C)CC2)C1=N (stereo not drawn) [Compound 2718.060]
3.7 ± 0.4,60,0.9 ± 0.3,–,0.5 ± 0.03,–,–,B (B (51–90% receptor activation)),–,–,–,–,–,–,–,CC(C)C[C@H]1CNC(=N)N1C[C@H]1CCCN1C[C@@H](Cc1ccccc1)N1C[C@@H]([C@H](C)O)N(CC2CCC(C(C)(C)C)CC2)C1=N (stereo partly drawn) [Compound 2718.040]
–,55,–,–,3 ± 1,–,50,–,–,–,75,12,–,–,–,CC(C)C[C@H]1CNC(=N)N1C[C@H]1CCCN1C[C@H](Cc1ccccc1)N1C[C@H]([C@@H](C)O)N(CC2CCC(C(C)(C)C)CC2)C1=N (stereo partly drawn) [Compound 2718.034]
–,60,–,–,3.5 ± 0.3,–,55,–,–,–,65,–,–,–,–,CCC[C@H]1CN([C@@H](CC2CCCCC2)CN2CCC[C@@H]2CN2C(=N)NC[C@@H]2C(C)C)C(=N)N1CC1CCC(C(C)(C)C)CC1 (stereo partly drawn) [Compound 2718.054]
5.9 ± 0.9,–,0.6 ± 0.1,–,1.4 ± 0.3,–,–,B (B (51–90% receptor activation)),–,1.6 ± 0.3,–,5,–,–,B (B (51–90% receptor activation)),CC(C)C[C@@H]1CNC(=N)N1C[C@H]1CCCN1C[C@H](Cc1ccccc1)N1C[C@@H]([C@H](C)O)N(CC2CCC(C(C)(C)C)CC2)C1=N (stereo partly drawn) [Compound 2718.038]

# The next lines start with the molecule.
SMILES,EC50 (mMC3R) [µM],mMC4R percent maximal stimulatory response (compared to NDP-MSH) (mMC4R) [% @ 1 mM],EC50 (mMC1R) [µM],mMC1R partial agonist efficacy bin (mMC1R),EC50 (mMC5R) [µM],mMC5R partial agonist efficacy bin (mMC5R),mMC3R percent maximal stimulatory response (compared to NDP-MSH) (mMC3R) [% @ 1 mM],mMC3R partial agonist efficacy bin (mMC3R),fold decreased mMC5R agonist potency (mMC5R; relative to 2718.002) [fold],EC50 (mMC4R) [µM],mMC1R percent maximal stimulatory response (compared to NDP-MSH) (mMC1R) [% @ 1 mM],fold decreased mMC5R agonist potency (mMC5R; relative to 2718.001) [fold],fold decreased mMC1R agonist potency (mMC1R; relative to 2718.001) [fold],"mMC5R percent maximal stimulatory response (compared to NDP-MSH) (mMC5R; at 1 mM, not enough stimulation to determine EC50) [% @ 1 mM]","mMC4R partial agonist efficacy bin (mMC4R; sigmoidal curve, efficacy <90% of NDP-MSH)"
CCN1C(=N)N([C@H](CC2CCCCC2)CN2CCC[C@H]2CN2C(=N)NC[C@H]2CC(C)C)C[C@H]1[C@H](C)O [Compound 2718.010],> 1000,20,5 ± 1,B (B (51–90% receptor activation)),45.5,A (A (20–50% receptor activation)),–,–,–,–,–,–,–,–,–
CCN1C(=N)N([C@H](Cc2ccccc2)CN2CCC[C@H]2CN2C(=N)NC[C@H]2CC(C)C)C[C@H]1[C@H](C)O [Compound 2718.004],> 1000,–,20.6,A (A (20–50% receptor activation)),> 1000,–,–,–,–,> 1000,–,–,–,–,–
CC(C)C[C@H]1CNC(=N)N1C[C@@H]1CCCN1C[C@@H](Cc1ccccc1)N1C[C@@H]([C@H](C)O)N(CC2CCC(C(C)(C)C)CC2)C1=N (stereo partly drawn) [Compound 2718.033],3.8 ± 0.6,60,0.38 ± 0.04,–,0.9 ± 0.3,–,–,B (B (51–90% receptor activation)),–,–,–,–,–,–,–
CC(C)C[C@@H]1CNC(=N)N1C[C@@H]1CCCN1C[C@H](Cc1ccccc1)N1C[C@@H]([C@H](C)O)N(CC2CCC(C(C)(C)C)CC2)C1=N (stereo partly drawn) [Compound 2718.031],–,55,2.3 ± 0.9,–,–,–,55,–,–,–,–,–,7,70,–
